Results on five compounds are retold here after ChEMBL document CHEMBL5154644, “Design, Synthesis, and Structure-Activity Relationship Optimization of Pyrazolopyrimidine Amide Inhibitors of Phosphoinositide 3-Kinase γ (PI3Kγ)” (J Med Chem, 2022).

Some results are limits rather than exact numbers.

For orientation: IC50 means the concentration at which inhibition is half-maximal. A word on the inhibition: it is the change of the read-out against control, counted positive when it falls. A high value points to a strong effect.

Phosphatidylinositol 4,5-bisphosphate 3-kinase catalytic subunit alpha isoform, sequence (P42336 whole entry, canonical isoform): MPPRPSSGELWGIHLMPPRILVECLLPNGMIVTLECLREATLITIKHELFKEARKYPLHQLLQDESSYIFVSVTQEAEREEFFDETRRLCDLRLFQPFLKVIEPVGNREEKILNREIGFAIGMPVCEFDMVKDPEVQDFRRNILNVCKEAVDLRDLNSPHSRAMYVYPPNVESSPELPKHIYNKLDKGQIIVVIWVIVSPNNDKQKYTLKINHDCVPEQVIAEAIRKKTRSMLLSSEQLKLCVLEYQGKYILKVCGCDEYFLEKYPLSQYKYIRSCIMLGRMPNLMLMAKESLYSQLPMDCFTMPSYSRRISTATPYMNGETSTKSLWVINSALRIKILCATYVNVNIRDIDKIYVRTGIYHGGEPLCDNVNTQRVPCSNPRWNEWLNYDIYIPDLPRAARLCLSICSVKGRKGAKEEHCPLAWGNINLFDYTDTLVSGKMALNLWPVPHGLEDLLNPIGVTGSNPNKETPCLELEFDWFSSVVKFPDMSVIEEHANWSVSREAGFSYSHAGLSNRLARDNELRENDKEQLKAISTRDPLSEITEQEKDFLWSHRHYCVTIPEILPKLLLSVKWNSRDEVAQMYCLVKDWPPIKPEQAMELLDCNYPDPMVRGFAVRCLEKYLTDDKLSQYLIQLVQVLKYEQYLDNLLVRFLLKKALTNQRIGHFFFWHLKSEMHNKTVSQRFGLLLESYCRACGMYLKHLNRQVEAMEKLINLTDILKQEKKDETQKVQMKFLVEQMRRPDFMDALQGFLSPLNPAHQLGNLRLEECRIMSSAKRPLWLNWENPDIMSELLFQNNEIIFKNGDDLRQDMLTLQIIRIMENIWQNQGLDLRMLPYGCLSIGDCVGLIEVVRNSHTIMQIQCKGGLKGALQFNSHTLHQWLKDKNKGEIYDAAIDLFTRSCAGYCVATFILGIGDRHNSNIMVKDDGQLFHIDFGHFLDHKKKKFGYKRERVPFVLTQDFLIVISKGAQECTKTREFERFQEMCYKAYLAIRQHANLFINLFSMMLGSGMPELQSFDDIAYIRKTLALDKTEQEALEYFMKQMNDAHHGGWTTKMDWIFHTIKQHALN
CYP3A4, sequence (P08684 whole entry): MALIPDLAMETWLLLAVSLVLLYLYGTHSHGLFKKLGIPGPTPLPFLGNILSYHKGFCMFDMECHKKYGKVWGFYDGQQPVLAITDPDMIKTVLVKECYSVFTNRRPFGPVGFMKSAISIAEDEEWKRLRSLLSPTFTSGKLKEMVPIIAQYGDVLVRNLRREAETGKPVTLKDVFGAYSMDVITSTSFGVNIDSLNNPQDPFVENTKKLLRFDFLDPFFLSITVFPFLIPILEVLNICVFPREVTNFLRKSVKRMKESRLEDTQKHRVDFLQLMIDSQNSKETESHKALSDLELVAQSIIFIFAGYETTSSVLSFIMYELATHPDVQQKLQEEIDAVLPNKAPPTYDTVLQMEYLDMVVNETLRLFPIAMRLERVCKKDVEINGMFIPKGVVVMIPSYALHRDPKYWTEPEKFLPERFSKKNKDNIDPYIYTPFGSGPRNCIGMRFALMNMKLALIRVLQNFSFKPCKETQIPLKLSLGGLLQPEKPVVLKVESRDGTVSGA

The species entered for one series is Homo sapiens. As to the kind of experiment: Selectivity ratio of IC50 for inhibition of PI3Kdelta (unknown origin) to IC50 for inhibition of PI3Kgamma (unknown origin).
Settings: not given
`CC(C)c1cc(-c2ccn3nc(N)c(C(=O)NC4CC4)c3n2)cc2c1C(=O)N([C@@H](C)C1CC1)C2`: the Ratio IC50 was determined as 322.

Turning to `CNS(=O)(=O)c1cc(-c2ccn3nc(N)c(C(=O)N[C@H]4CC[C@](C)(O)CC4)c3n2)cc2c1C(=O)N([C@@H](C)C(F)(F)F)C2`, the Ratio IC50 was 22.

As to `Cc1cc(-c2ccn3nc(N)c(C(=O)NC4CC4)c3n2)cc2c1C(=O)N(CC1CC1)C2`, the Ratio IC50 stood at 84.

For the compound `Cc1cc(-c2ccn3nc(N)c(C(=O)N[C@H]4CC[C@H](C(=O)O)CC4)c3n2)cc2c1C(=O)N([C@@H](C)C1CC1)C2`, the Ratio IC50 turned out to be 9.

For a further series, the target named is T1, Phosphatidylinositol 4,5-bisphosphate 3-kinase catalytic subunit delta isoform (Homo sapiens, UniProt O00329).
T1 sequence (O00329 whole entry): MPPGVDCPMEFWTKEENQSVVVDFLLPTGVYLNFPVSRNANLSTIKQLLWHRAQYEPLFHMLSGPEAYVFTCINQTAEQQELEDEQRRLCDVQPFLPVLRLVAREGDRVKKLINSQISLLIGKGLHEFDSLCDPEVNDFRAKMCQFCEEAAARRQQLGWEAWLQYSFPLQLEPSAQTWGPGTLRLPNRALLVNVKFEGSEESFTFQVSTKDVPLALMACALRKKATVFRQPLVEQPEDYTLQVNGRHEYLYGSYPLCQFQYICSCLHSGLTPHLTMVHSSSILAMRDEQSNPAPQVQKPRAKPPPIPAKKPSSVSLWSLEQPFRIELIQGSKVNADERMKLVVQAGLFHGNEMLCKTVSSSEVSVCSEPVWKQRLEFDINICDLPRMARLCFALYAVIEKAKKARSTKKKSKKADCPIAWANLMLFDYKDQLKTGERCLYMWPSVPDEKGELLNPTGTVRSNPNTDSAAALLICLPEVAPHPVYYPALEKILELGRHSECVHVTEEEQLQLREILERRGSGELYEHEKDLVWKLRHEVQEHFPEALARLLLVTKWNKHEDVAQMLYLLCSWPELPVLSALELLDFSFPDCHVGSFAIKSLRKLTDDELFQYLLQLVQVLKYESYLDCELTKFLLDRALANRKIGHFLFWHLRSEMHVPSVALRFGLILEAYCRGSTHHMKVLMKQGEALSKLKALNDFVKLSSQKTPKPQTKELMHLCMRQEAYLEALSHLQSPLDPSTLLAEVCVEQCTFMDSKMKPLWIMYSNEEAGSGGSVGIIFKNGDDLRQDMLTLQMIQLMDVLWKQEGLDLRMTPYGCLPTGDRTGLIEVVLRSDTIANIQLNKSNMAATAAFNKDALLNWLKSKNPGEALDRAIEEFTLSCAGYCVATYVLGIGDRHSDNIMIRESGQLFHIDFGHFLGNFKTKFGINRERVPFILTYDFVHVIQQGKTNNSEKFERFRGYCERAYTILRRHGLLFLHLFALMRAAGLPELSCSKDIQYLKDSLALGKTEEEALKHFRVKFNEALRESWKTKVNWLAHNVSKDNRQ
As to the kind of experiment: Inhibition of PI3Kdelta (unknown origin) using PIP2 as substrate preincubated for 1 hr followed by substrate addition and measured after 60 mins in presence of ATP by ADP-glo assay.
Settings: not given
Regarding `CC(C)c1cc(-c2ccn3nc(N)c(C(=O)NC4CC4)c3n2)cc2c1C(=O)N([C@@H](C)C1CC1)C2`, the IC50 came to 1480 nM.

In the case of `CNS(=O)(=O)c1cc(-c2ccn3nc(N)c(C(=O)N[C@H]4CC[C@](C)(O)CC4)c3n2)cc2c1C(=O)N([C@@H](C)C(F)(F)F)C2`, the half-inhibitory concentration (IC50) amounted to 20 nM.

On to `Cc1cc(-c2ccn3nc(N)c(C(=O)NC4CC4)c3n2)cc2c1C(=O)N(CC1CC1)C2`, for which the half-maximal inhibitory concentration (IC50) is 911 nM.

On to `Cc1cc(-c2ccn3nc(N)c(C(=O)N[C@H]4CC[C@H](C(=O)O)CC4)c3n2)cc2c1C(=O)N([C@@H](C)C1CC1)C2`, for which the IC50 is 20 nM.

System in a further series: not listed separately
The experiment in a line: Metabolic stability in human hepatocytes assessed as intrinsic clearance per 10^6 cells at 0.5 uM by LC-MS/MS analysis. It counts as ADME, cell-based, Hepatocyte. To be noted: read-out: CLH.
Take `Cc1cc(-c2ccn3ncc(-c4cnn(C)c4)c3n2)cc2c1C(=O)N([C@@H](C)C1CC1)C2`: the hepatocyte CLint at 0.5 µM turned out to be 27.2 µL/min/1e6 cells.

In the case of `CC(C)c1cc(-c2ccn3nc(N)c(C(=O)NC4CC4)c3n2)cc2c1C(=O)N([C@@H](C)C1CC1)C2`, the hepatocyte CLint at 0.5 µM was under 1.2 µL/min/1e6 cells.

For `CNS(=O)(=O)c1cc(-c2ccn3nc(N)c(C(=O)N[C@H]4CC[C@](C)(O)CC4)c3n2)cc2c1C(=O)N([C@@H](C)C(F)(F)F)C2`, the hepatocyte CLint at 0.5 µM was 2.77 µL/min/1e6 cells.

In a further series the target is T2, Phosphatidylinositol 4,5-bisphosphate 3-kinase catalytic subunit gamma isoform (Homo sapiens, UniProt P48736). The experiment in a line: Inhibition of PI3Kgamma (unknown origin) in […] stimulated human THP-1 cells assessed as reduction in Akt phosphorylation level at Ser473 residue preincubated for 60 mins followed by rhMCP-1 stimulation and measured after 2 mins by AlphaLisa assay. It counts as cell-based.
T2 sequence (P48736 whole entry, canonical isoform): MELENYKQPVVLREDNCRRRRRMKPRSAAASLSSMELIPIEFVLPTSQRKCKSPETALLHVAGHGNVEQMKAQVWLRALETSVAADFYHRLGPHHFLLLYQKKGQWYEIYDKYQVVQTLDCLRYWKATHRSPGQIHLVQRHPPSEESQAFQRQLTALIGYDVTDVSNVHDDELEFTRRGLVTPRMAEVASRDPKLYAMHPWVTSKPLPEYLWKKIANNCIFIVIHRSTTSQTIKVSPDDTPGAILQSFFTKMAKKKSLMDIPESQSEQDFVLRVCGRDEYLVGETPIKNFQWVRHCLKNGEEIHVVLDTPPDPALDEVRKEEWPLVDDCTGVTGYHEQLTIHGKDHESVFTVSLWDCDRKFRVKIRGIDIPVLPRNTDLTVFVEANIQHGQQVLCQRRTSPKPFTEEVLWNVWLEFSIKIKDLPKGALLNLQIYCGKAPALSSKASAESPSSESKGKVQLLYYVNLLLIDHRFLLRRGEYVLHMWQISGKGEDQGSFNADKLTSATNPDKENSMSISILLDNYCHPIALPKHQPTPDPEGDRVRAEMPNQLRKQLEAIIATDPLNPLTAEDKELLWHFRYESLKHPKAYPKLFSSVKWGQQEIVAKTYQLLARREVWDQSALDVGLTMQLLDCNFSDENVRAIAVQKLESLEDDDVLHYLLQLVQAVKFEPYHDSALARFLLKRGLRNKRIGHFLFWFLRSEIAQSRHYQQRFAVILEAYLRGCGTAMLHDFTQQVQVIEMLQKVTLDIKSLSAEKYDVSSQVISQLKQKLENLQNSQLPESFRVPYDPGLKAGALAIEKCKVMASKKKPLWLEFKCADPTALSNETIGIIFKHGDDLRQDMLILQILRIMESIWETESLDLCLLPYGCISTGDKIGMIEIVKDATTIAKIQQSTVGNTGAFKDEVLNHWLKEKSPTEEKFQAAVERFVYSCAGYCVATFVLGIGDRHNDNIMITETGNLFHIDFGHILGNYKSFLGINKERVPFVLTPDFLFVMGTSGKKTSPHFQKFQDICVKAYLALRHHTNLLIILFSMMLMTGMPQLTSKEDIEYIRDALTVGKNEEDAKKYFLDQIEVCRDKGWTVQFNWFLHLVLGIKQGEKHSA
Settings: not given
(In general: Alpha assays give light when donor and acceptor beads are brought close together.)
As to `Cc1cc(-c2ccn3ncc(-c4cnn(C)c4)c3n2)cc2c1C(=O)N([C@@H](C)C1CC1)C2`, the half-inhibitory concentration (IC50) is 468 nM.

With `CC(C)c1cc(-c2ccn3nc(N)c(C(=O)NC4CC4)c3n2)cc2c1C(=O)N([C@@H](C)C1CC1)C2`, the IC50 came to 54 nM.

As to `CNS(=O)(=O)c1cc(-c2ccn3nc(N)c(C(=O)N[C@H]4CC[C@](C)(O)CC4)c3n2)cc2c1C(=O)N([C@@H](C)C(F)(F)F)C2`, the IC50 came to 32 nM.

As to `Cc1cc(-c2ccn3nc(N)c(C(=O)NC4CC4)c3n2)cc2c1C(=O)N(CC1CC1)C2`, the IC50 was 258 nM.

Turning to `Cc1cc(-c2ccn3nc(N)c(C(=O)N[C@H]4CC[C@H](C(=O)O)CC4)c3n2)cc2c1C(=O)N([C@@H](C)C1CC1)C2`, the IC50 came to 397 nM.

System in the next series: not listed separately
As to the kind of experiment: Metabolic stability in rat hepatocyte assessed as intrinsic clearance per 10^8 cells at 0.5 uM by LC-MS/MS analysis. It counts as ADME, cell-based. The conditions noted are these: hepatocytes.
With `Cc1cc(-c2ccn3ncc(-c4cnn(C)c4)c3n2)cc2c1C(=O)N([C@@H](C)C1CC1)C2`, the hepatocyte intrinsic clearance was 10.3 µL/min.

With `CC(C)c1cc(-c2ccn3nc(N)c(C(=O)NC4CC4)c3n2)cc2c1C(=O)N([C@@H](C)C1CC1)C2`, the hepatocyte intrinsic clearance came to 2.41 µL/min.

For `CNS(=O)(=O)c1cc(-c2ccn3nc(N)c(C(=O)N[C@H]4CC[C@](C)(O)CC4)c3n2)cc2c1C(=O)N([C@@H](C)C(F)(F)F)C2`, the hepatocyte intrinsic clearance was under 1.2 µL/min.

The target in a further series is T2, Phosphatidylinositol 4,5-bisphosphate 3-kinase catalytic subunit gamma isoform. As to the kind of experiment: Inhibition of PI3Kgamma (unknown origin) using PIP2 as substrate preincubated for 1 hr followed by substrate addition and measured after 60 mins in presence of ATP by ADP-glo assay.
Settings: not given
Consider `CC(C)c1cc(-c2ccn3nc(N)c(C(=O)NC4CC4)c3n2)cc2c1C(=O)N([C@@H](C)C1CC1)C2`, for which the IC50 was 4.6 nM.

With `CNS(=O)(=O)c1cc(-c2ccn3nc(N)c(C(=O)N[C@H]4CC[C@](C)(O)CC4)c3n2)cc2c1C(=O)N([C@@H](C)C(F)(F)F)C2`, the concentration for half-maximal inhibition (IC50) came out at 0.9 nM.

For `Cc1cc(-c2ccn3nc(N)c(C(=O)NC4CC4)c3n2)cc2c1C(=O)N(CC1CC1)C2`, the IC50 worked out at 10.1 nM.

Regarding `Cc1cc(-c2ccn3nc(N)c(C(=O)N[C@H]4CC[C@H](C(=O)O)CC4)c3n2)cc2c1C(=O)N([C@@H](C)C1CC1)C2`, the IC50 was determined as 2.1 nM.

A further series concerns the target Phosphatidylinositol 4,5-bisphosphate 3-kinase catalytic subunit alpha isoform (Homo sapiens, UniProt P42336). The experiment in a line: Inhibition of PI3Kalpha (unknown origin) using PIP2 as substrate preincubated for 1 hr followed by substrate addition and measured after 60 mins in presence of ATP by ADP-glo assay.
Settings: not given
(In general: ADP-Glo first removes unused ATP, then detects ADP through luciferase.)
With `CC(C)c1cc(-c2ccn3nc(N)c(C(=O)NC4CC4)c3n2)cc2c1C(=O)N([C@@H](C)C1CC1)C2`, the 50% inhibitory concentration (IC50) turned out to be 1010 nM.

Consider `CNS(=O)(=O)c1cc(-c2ccn3nc(N)c(C(=O)N[C@H]4CC[C@](C)(O)CC4)c3n2)cc2c1C(=O)N([C@@H](C)C(F)(F)F)C2`, for which the half-maximal inhibitory concentration (IC50) came to 49 nM.

Turning to `Cc1cc(-c2ccn3nc(N)c(C(=O)NC4CC4)c3n2)cc2c1C(=O)N(CC1CC1)C2`, the IC50 worked out at 431 nM.

Turning to `Cc1cc(-c2ccn3nc(N)c(C(=O)N[C@H]4CC[C@H](C(=O)O)CC4)c3n2)cc2c1C(=O)N([C@@H](C)C1CC1)C2`, the half-maximal inhibitory concentration (IC50) worked out at 29 nM.

The species entered for another series is Homo sapiens. The experiment in a line: Selectivity ratio of IC50 for inhibition of PI3Kalpha (unknown origin) to IC50 for inhibition of PI3Kgamma (unknown origin).
Settings: not given
With `CC(C)c1cc(-c2ccn3nc(N)c(C(=O)NC4CC4)c3n2)cc2c1C(=O)N([C@@H](C)C1CC1)C2`, the Ratio IC50 was determined as 220.

As for `CNS(=O)(=O)c1cc(-c2ccn3nc(N)c(C(=O)N[C@H]4CC[C@](C)(O)CC4)c3n2)cc2c1C(=O)N([C@@H](C)C(F)(F)F)C2`, the Ratio IC50 is 53.

With `Cc1cc(-c2ccn3nc(N)c(C(=O)NC4CC4)c3n2)cc2c1C(=O)N(CC1CC1)C2`, the Ratio IC50 is 42.

With `Cc1cc(-c2ccn3nc(N)c(C(=O)N[C@H]4CC[C@H](C(=O)O)CC4)c3n2)cc2c1C(=O)N([C@@H](C)C1CC1)C2`, the Ratio IC50 is 13.

Another series has as its target CYP3A4 (Homo sapiens, UniProt P08684). The experiment in a line: in vitro. The conditions noted are these: human liver microsomes, probe midazolam. (Liver microsomes are vesicles of endoplasmic reticulum, rich in cytochrome P450 enzymes.)
Description: Time dependent inhibition of CYP3A4 in human liver microsomes at 10 uM using midazolam as substrate preincubated for 30 mins in presence of NADPH by LC/MS/MS analysis relative to control
Compound `Cc1cc(-c2ccn3ncc(-c4cnn(C)c4)c3n2)cc2c1C(=O)N([C@@H](C)C1CC1)C2` had an inhibition at 30 min, 10 µM of 67%.

In turn, `CC(C)c1cc(-c2ccn3nc(N)c(C(=O)NC4CC4)c3n2)cc2c1C(=O)N([C@@H](C)C1CC1)C2` gave an inhibition at 30 min, 10 µM of 28%.
